Source: patent publication US6461997B1, “Triazole sulfones having herbicidal activity” (Monsanto Technology LLC, priority 1999, dated 2002)

Key:
ABUTH (velvetleaf) = assay: Pre-emergence herbicidal activity, warm season; type: in vivo, Abutilon theophrasti; conditions: for Pre-emergence activity (GR80) ABUTH: GR80 = lowest tested rate (300, 100, 30, 10 g/ha) with 80% or greater inhibition, approx. 14 days after treating, 30/21° C.
Summary of the method: (§1)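 GR80 values derive from percent inhibition relative to untreated plants, read roughly 14 days after sowing and pre-emergence soil-surface treatment (compound in 50:50 acetone/water; rates typically 10, 30, 100, 300 g/ha). Warm-season weeds grew at 30/21° C day/night, cool-season ones at 18/13° C; an asterisk marks activity without reaching 80% at the highest rate.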

DATST (jimsonweed) = assay: Pre-emergence herbicidal activity, warm season; type: in vivo, Datura stramonium; conditions: for Pre-emergence activity (GR80) DATST: GR80 = lowest tested rate (300, 100, 30, 10 g/ha) with 80% or greater inhibition, approx. 14 days after treating, 30/21° C.
Summary of the method: as §1

CONAR (field bindweed) [1] = assay: Pre-emergence herbicidal activity, warm season; type: in vivo, Convolvulus arvensis; conditions: GR80 = lowest tested rate (300, 100, 30, 10 g/ha) with 80% or greater inhibition; approx. 14 days after treating; 30/21° C.
Summary of the method: as §1

KCHSC (kochia) [2] = assay: Pre-emergence herbicidal activity, cool season; type: in vivo, Kochia scoparia; conditions: lowest tested rate with 80% or greater inhibition; rates 300, 100, 30, 10 g/ha; about 14 days
Summary of the method: as §1

LOLMG (annual ryegrass) = assay: Pre-emergence herbicidal activity, cool season; type: in vivo, Lolium multiflorum; conditions: GR80 = lowest tested rate (300, 100, 30, 10 g/ha) with 80% or greater inhibition; approx. 14 days after treating; 18/13° C.
Summary of the method: as §1

BROTE (downy brome) = assay: Pre-emergence herbicidal activity, cool season; type: in vivo, Bromus tectorum; conditions: GR80 = lowest tested rate (300, 100, 30, 10 g/ha) with 80% or greater inhibition; approx. 14 days after treating; 18/13° C.
Summary of the method: as §1

[3] = system: AGRRE (quackgrass (seedling)); assay: Pre-emergence herbicidal activity, cool season; type: in vivo, Elymus repens; conditions: GR80 = lowest tested rate (300, 100, 30, 10 g/ha) with 80% or greater inhibition; approx. 14 days after treating; 18/13° C.
Summary of the method: as §1

XANST (cocklebur) = assay: Pre-emergence herbicidal activity, warm season; type: in vivo; conditions: Xanthium strumarium, pre-emergence application, read-out: Percent inhibition, weed XANST
Experimental: Tables 5 to 8 summarize results of tests conducted as described below to determine the pre-emergence herbicidal activity, in the form of a GR80 value, of illustrative compounds of this invention. […] Compounds of the invention were typically applied at rates of 300, 100, 30, and 10 g/ha. Where herbicidal activity was evident but 80% inhibition was not achieved at the highest rate tested, an asterisk (*) is shown in the following tables.
The pre-emergence tests were conducted by the following procedure. Topsoil was sieved to pass through a 1.27 cm screen. Fertilizer was added to the topsoil and the mixture was then sterilized by heating. The topsoil mixture was placed in a pot and compacted to a depth of 1.0 to 1.25 cm from the top of the pot. Seeds of each of several monocotyledonous and dicotyledonous annual plant species were placed on top of the soil. Additional soil was subsequently placed over the seeds to level-fill the pot. A known amount of each test compound dissolved or suspended in an appropriate organic solvent was diluted with a 50:50 mix of acetone and water and applied to the surface of the soil. After treatment the plants were placed in a greenhouse where they received 0.64 cm of overhead irrigation. All subsequent watering consisted of a light overhead mist and/or subirrigation as needed for germination and growth. Tables 5 and 6 below relate to warm season plant species which were placed after pre-emergence treatment in a greenhouse with a 30/21° C. day/night temperature regime. Tables 7 and 8 below relates to cool season plant species placed after pre-emergence treatment in a greenhouse or growth chamber with an 18/13° C. day/night temperature regime.
(§2) Approximately 14 days after planting and treating, the plants were observed and herbicidal efficacy recorded as percent inhibition by comparison with untreated plants.
The plant species usually regarded as weeds which were utilized in the tests are identified in the tables below according to the following legend, in which “d” indicates a dicotyledonous species and “m” a monocotyledonous species. All monocotyledonous species included in the tests herein are grasses.

CONAR (field bindweed) [4] = assay: Pre-plant incorporated (PPI) herbicidal activity, warm season; type: in vivo, Convolvulus arvensis; conditions: GR80 = lowest tested rate with 80% or greater inhibition, approx. 14 days after treating, 30/21° C.
Experimental: (§3) In another set of tests, the pre-plant incorporated (PPI) activity of compounds of this invention was evaluated on the same species as for the pre-emergence tests described above. In the PPI tests the following procedure, designed to simulate PPI application, was used.
(§4) A pre-prepared topsoil mixture (described above) was placed in a pot and compacted to a depth of 1.0 to 1.25 cm from the top of the pot. Seeds of each of several monocotyledonous and dicotyledonous annual plant species were placed on top of the soil. A sufficient quantity of soil to cover the seeds and level fill the pot was weighed into an open container. A known amount of the test compound was dissolved or suspended in an organic solvent and applied by spraying to this cover soil. The cover soil was thoroughly mixed to distribute the test compound throughout the cover soil, and was then applied as a cover layer over the seeds. Untreated soil was used as a cover layer for control pots. After treatment the plants were placed in a greenhouse where they received 0.64 cm of overhead irrigation. All subsequent watering consisted of a light overhead mist and/or subirrigation as needed for germination and growth. Tables 9 and 10 below relate to warm season plant species which were placed after pre-emergence treatment in a greenhouse with a 30/21° C. day/night temperature regime. Tables 11 and 12 below relates to cool season plant species placed after pre-emergence treatment in a greenhouse or growth chamber with an 18/13° C. day/night temperature regime. Only the compounds of Examples 1, 6, 8, 11, 13 and 15-20 were included in PPI tests.
as §2

KCHSC (kochia) [5] = assay: Pre-plant incorporated (PPI) herbicidal activity, cool season; type: in vivo, Kochia scoparia; conditions: for PPI activity GR80, KCHSC: pre-plant incorporated, lowest tested rate with 80% or greater inhibition, about 14 days; for Percent inhibition KCHSC: weed, PPI application
Experimental: as §3, §4, §2

[6] = system: IPOSS (annual morningglory); assay: Pre-plant incorporated (PPI) herbicidal activity, warm season; type: in vivo, Ipomoea spp.; conditions: Ipomoea, PPI application, read-out: Percent inhibition IPOSS
Experimental: as §3, §4, §2

[7] = Abutilon theophrasti, pre-emergence application, read-out: Percent inhibition, weed ABUTH
[8] = Datura stramonium, pre-emergence application, read-out: Percent inhibition, weed DATST

Compound | inhibition at 10 g/ha (ABUTH (velvetleaf); [7]) [%] | inhibition at 30 g/ha (ABUTH (velvetleaf); [7]) [%] | inhibition at 300 g/ha (ABUTH (velvetleaf); [7]) [%] | inhibition at 900 g/ha (ABUTH (velvetleaf); [7]) [%] | Pre-emergence activity (GR80) ABUTH (ABUTH (velvetleaf)) [g/ha] | inhibition at 10 g/ha (DATST (jimsonweed); [8]) [%] | inhibition at 30 g/ha (DATST (jimsonweed); [8]) [%] | inhibition at 100 g/ha (DATST (jimsonweed); [8]) [%] | inhibition at 300 g/ha (DATST (jimsonweed); [8]) [%] | Pre-emergence activity (GR80) DATST (DATST (jimsonweed)) [g/ha] | Pre-emergence activity (GR80) CONAR (CONAR (field bindweed) [1]) | Pre-emergence activity GR80, KCHSC (KCHSC (kochia) [2]) | Pre-emergence activity (GR80) LOLMG (LOLMG (annual ryegrass)) [g/ha] | Pre-emergence activity (GR80) BROTE (BROTE (downy brome)) | Pre-emergence activity (GR80) AGRRE [3] [g/ha] | inhibition at 10 g/ha (XANST (cocklebur)) [%] | PPI activity (GR80) CONAR (CONAR (field bindweed) [4]) | PPI activity GR80, KCHSC (KCHSC (kochia) [5]) | inhibition at 300 g/ha [6] [%] | inhibition at 900 g/ha [6] [%] | also measured
CCN(CC)C(=O)n1cnc(S(=O)(=O)C(F)(F)Br)n1 [Example 1, 3-(bromodifluoromethylsulfonyl)-1-(N,N-diethylcarbamoyl)-1,2,4-triazole] | 0 | 0 | 0 | 0 | 300 | 0 | 0 | 0 | 0 | 300 | 300 g/ha | 300 g/ha | 100 | 300 g/ha | 300 | 0 | 100 g/ha | 100 g/ha | 60 | 80 | inhibition at 900 g/ha (DATST (jimsonweed); Datura stramonium, pre-emergence application, 900 g/ha, read-out: Percent inhibition, weed DATST): 20%; inhibition at 30 g/ha (XANST (cocklebur)): 0%; inhibition at 10 g/ha ([6]; 10 g/ha): 0%; melting point: 74 to 75 °C
CCN(CC)C(=O)n1cnc(S(=O)(=O)C(F)(F)C(=O)c2ccccc2)n1 [Example 6] | – | – | – | – | – | – | – | – | – | – | – | 300 g/ha | 300 | – | 300 | – | * (activity observed, at least at highest rate, but <80% inhibition) | 300 g/ha | – | – | –
CCSC(F)(F)S(=O)(=O)c1ncn(C(=O)N(CC)CC)n1 [Example 8, 1-(N,N-diethylcarbamoyl)-3-[difluoro(ethylthio)methylsulfonyl]-1,2,4-triazole] | – | – | – | – | 300 | – | – | – | – | 300 | 100 g/ha | [empty] | – | * (activity observed, at least at highest rate, but <80% inhibition) | – | – | 300 g/ha | 100 g/ha | 90 | 100 | inhibition at 30 g/ha [6]: 0%; inhibition at 100 g/ha ([6]; 100 g/ha): 70%
CCN(CC)C(=O)n1cnc(S(=O)(=O)C(F)F)n1 [Example 15, 1-(N,N-diethylcarbamoyl)-3-(difluoromethylsulfonyl)-1,2,4-triazole] | 0 | 0 | 0 | 0 | 300 | 0 | 0 | 0 | 0 | 300 | – | – | – | – | – | 0 | * (activity observed, at least at highest rate, but <80% inhibition) | 100 g/ha | 20 | 20 | inhibition at 100 g/ha (ABUTH (velvetleaf); Abutilon theophrasti, pre-emergence application, 100 g/ha, read-out: Percent inhibition, weed ABUTH): 0%; inhibition at 30 g/ha (XANST (cocklebur)): 0%; inhibition at 100 g/ha (XANST (cocklebur); 100 g/ha): 0%; inhibition at 300 g/ha (XANST (cocklebur); 300 g/ha): 0%; inhibition at 30 g/ha [6]: 0%; melting point: 58 to 59 °C
C=C(CC(F)(F)S(=O)(=O)c1ncn(C(=O)N(CC)CC)n1)C[Si](C)(C)C [Example 20] | – | – | – | – | 300 | – | – | – | – | – | * (activity observed, at least at highest rate, but <80% inhibition) | [empty] | – | – | – | – | * (activity observed, at least at highest rate, but <80% inhibition) | [empty] | – | – | Percent inhibition KCHSC (KCHSC (kochia) [5]; 10 g/ha): 50%; Percent inhibition KCHSC (KCHSC (kochia) [5]; 30 g/ha): 50%; Percent inhibition KCHSC (KCHSC (kochia) [5]; 100 g/ha): 100%; Percent inhibition KCHSC (KCHSC (kochia) [5]; 300 g/ha): 100%; Percent inhibition KCHSC (KCHSC (kochia) [5]; 900 g/ha): 100%
